Assay results from PubChem BioAssay AID434951 (Broad Institute, 2010).
Calls of active or inactive are those of the source.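 The calls were made as follows: active = a fitted half-maximal concentration EC50 for the rise in nuclear signal no higher than ten times the top dose tested; inconclusive = flat fit with activity between 30% and 70%, or unusable fit; inactive = EC50 beyond ten times the top dose.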

Each compound was assayed against Hypoxia-inducible factor 1-alpha (Homo sapiens) (UniProt Q16665) (assay: activators of HIF1alpha nuclear accumulation, confirmation, imaging, fluorescence, U2OS GFP-HIF1alpha (AID 434951)). Conditions: U2OS GFP-HIF1alpha nuclear intensity, high-content imaging.
Chain of Hypoxia-inducible factor 1-alpha (Homo sapiens) (Q16665 whole entry, looked up): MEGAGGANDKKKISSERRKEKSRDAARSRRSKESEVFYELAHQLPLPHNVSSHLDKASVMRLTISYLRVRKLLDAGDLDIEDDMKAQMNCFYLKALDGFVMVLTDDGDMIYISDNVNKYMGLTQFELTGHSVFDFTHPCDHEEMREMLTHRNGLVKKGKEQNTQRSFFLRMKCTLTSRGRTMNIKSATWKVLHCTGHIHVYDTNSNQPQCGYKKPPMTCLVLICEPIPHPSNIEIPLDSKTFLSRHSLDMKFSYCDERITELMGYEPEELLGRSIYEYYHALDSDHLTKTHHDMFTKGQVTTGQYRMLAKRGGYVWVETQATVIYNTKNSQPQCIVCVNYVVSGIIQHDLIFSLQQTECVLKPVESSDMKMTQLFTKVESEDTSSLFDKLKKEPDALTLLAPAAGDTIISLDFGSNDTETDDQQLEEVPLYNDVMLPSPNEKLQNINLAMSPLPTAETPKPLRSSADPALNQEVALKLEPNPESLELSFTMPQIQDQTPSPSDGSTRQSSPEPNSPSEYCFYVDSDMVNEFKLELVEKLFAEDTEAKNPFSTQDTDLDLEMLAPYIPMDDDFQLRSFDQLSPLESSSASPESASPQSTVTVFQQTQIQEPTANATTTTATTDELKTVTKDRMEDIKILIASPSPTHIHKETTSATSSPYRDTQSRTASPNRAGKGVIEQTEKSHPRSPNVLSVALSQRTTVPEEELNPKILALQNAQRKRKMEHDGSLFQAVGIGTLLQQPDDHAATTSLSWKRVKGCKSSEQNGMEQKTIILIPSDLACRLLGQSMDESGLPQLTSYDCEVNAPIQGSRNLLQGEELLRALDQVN

| Compound | EC50 |
| --- | --- |
| CN(C)c1ccc(CNC(=O)CCS(=O)(=O)c2ccc3c(c2)oc(=O)n3C)cc1 | > 35 µM (inactive) |
| Cc1nnc(SCc2cccc(Cl)c2)n(N)c1=O | > 35 µM (inactive) |
| S=C(Nc1ccc(Cl)cc1)Nc1ccc2cn[nH]c2c1 | > 35 µM (inactive) |
| COc1ccc(NC(=O)CCC(=O)N(Cc2ccc(OC)c(OC)c2)c2nccs2)cc1 | > 35 µM (inactive) |
| O=C(N/N=C/c1cc(Br)cc(Br)c1O)c1ccncc1 | > 35 µM (inactive) |
| O=C(C1CCCN(Cc2ccccc2F)C1)N1CCc2ccccc2C1 (stereo not given) | > 35 µM (inactive) |
| COc1ccc(N/N=C(/N=Nc2nc(C)cc(=O)[nH]2)c2ccccc2)cc1 | 0.856 µM |
| CCCC(=O)NC(c1cccs1)c1cc(Cl)c2cccnc2c1O (stereo not given) | 7.25 µM |
| COc1ccc(CNS(=O)(=O)c2cc3c4c(c2)C(C)C(=O)N4CCC3)cc1 (stereo not given) | > 35 µM (inactive) |
| CC[C@@]1(O)C(=O)OCc2c1cc1n(c2=O)Cc2cc3c(N)cccc3nc2-1 | > 35 µM (inactive) |
| Oc1ccccc1C(Nc1nccs1)c1ccc2cccnc2c1O (stereo not given) | 6.57 µM |
| CC(=O)c1ccc(C(=O)N2CCCC(Nc3ccc(C(C)C)cc3)C2)s1 (stereo not given) | > 35 µM (inactive) |
| O=C(NNC(=O)c1ccccc1Br)c1ccc(Cl)cc1 | > 35 µM (inactive) |
| O=C1NC(=O)/C(=C/c2ccc(OS(=O)(=O)c3ccc(F)cc3F)cc2)N1 | > 35 µM (inactive) |
| O=C(NCC1CCCO1)c1cc(-c2ccc(F)cc2)no1 (stereo not given) | 32.6 µM |
| CCOc1ccc(NC(=O)CC2C(=O)Nc3ccccc3N2C(=O)c2ccccc2)cc1 (stereo not given) | > 35 µM (inactive) |
| Cc1nnc(-c2ccccc2)nc1N(C)C | > 35 µM (inactive) |
| O=C(NCC1CCCO1)c1cc(-c2ccccc2)on1 (stereo not given) | 6.78 µM |
| CC(C)C(=O)N1CCN(c2nc3ccc(Cl)cc3s2)CC1 | > 35 µM (inactive) |
| Cc1cccc(NC(=O)COc2cccc3c2CCN(C)C3=O)c1C | > 35 µM (inactive) |
| O=C(Nc1cccc(Cl)c1)Nc1cccc(C(=O)O)c1 | > 35 µM (inactive) |
| COC(=O)c1ccc(CSc2nc3c(c(=O)n2-c2ccc(F)cc2)SCC3)o1 | > 35 µM (inactive) |
| CCCCCCC1CCC(c2nc(-c3ccncc3)no2)CC1 (stereo not given) | > 35 µM (inactive) |
| Cc1sc2cc3c(c(C(=O)c4ccccc4)[n+]2c1C)-c1cccc2cccc-3c12 | > 35 µM (inactive) |
| O=C(CN1CCCCC1)N1CCCc2ccccc21 | > 35 µM (inactive) |
| CCNC(=O)COc1cccc(C(=O)NCc2ccccc2)c1 | > 35 µM (inactive) |
| COc1ccc(C2NC(=S)NC3=C2CCCC3=C2SCCS2)cc1 (stereo not given) | 17.8 µM |

| Compound | EC50 |
| --- | --- |
| CCn1c(SCC(=O)Nc2nncs2)nnc1-c1ccco1 | > 35 µM (inactive) |
| CCOC(=O)c1sc(N(Cc2ccccc2)C(=O)COC(=O)c2ccc(O)cc2)nc1C | 12.2 µM |
| CN1CCN(Cc2nc3ccccc3c(=O)n2Cc2nc(-c3ccccc3F)cs2)CC1 | 8.66 µM |
| CCCCCCn1nc(C(=O)Nc2nc3c(s2)CCCC3)c2ccccc2c1=O | > 35 µM (inactive) |
| O=C(NCCc1ccccc1)c1cc(-c2ccco2)on1 | 10.8 µM |
| COc1cccc(C(=O)C2CCCN(Cc3ccc4nsnc4c3)C2)c1 (stereo not given) | > 35 µM (inactive) |
| COc1ccc(N(CC(=O)Nc2cc(OC)ccc2OC)S(=O)(=O)c2c(C)noc2C)cc1 | > 35 µM (inactive) |
| O=C(CSC1c2ccccc2-c2ccccc21)N/N=C/c1ccccc1O | 6.46 µM |
| Cc1cc(/C=N/N2CCN(C)CC2)c(C)n1-c1ccc(Cl)cc1 | > 35 µM (inactive) |
| O=C(N/N=C(\Cc1ncc[nH]1)c1ccccc1)c1ccccc1 | > 35 µM (inactive) |
| COc1ccc(C(NC(=O)C(C)C)c2ccc3cccnc3c2O)cc1 (stereo not given) | 2.66 µM |
| FC(F)(F)c1cnc(N2CCN(C(=S)NCc3ccccc3)CC2)c(Cl)c1 | > 35 µM (inactive) |
| CC(C)[C@H](NC(=O)c1ccccc1Cl)C(=O)Nc1nc(-c2ccccn2)cs1 | 6.64 µM |
| Cc1cc(C)cc(NC(=O)c2cccc(NC(=O)c3ccco3)c2)c1 | > 35 µM (inactive) |
| COc1ccc2nc(NC(=O)c3cccs3)sc2c1 | > 35 µM (inactive) |
| O=C(N/N=C/c1c(O)ccc2ccccc12)c1ccc(Br)o1 | 12.3 µM |
| COc1cccc(/C=N/NC(=O)c2c(C)nc3ccc(Br)cn23)c1O | 5.52 µM |
| O=C(NNC(=O)C(O)(c1ccccc1)c1ccccc1)C1CC1 | > 35 µM (inactive) |
| COc1cccc(C(NC(C)=O)c2ccc3cccnc3c2O)c1 (stereo not given) | 5.94 µM |
| COc1ccc(NC(=O)C2CCN(S(=O)(=O)c3ccc4c(c3)CC(C)N4C(C)=O)CC2)cc1OC (stereo not given) | > 35 µM (inactive) |
| ONC=Nc1cccc2nonc12 | > 35 µM (inactive) |
| Cc1ccc(NC(=O)CSc2ncc3ccccn23)cc1 | > 35 µM (inactive) |
| FC(F)(F)c1ccc2c(c1)NP(=S)(N1CCOCC1)c1nccn1-2 (stereo not given) | > 35 µM (inactive) |
| CCN1CN(CCc2ccccc2)CNC1=S | > 35 µM (inactive) |
| Cc1ccc(S(=O)(=O)c2nc(-c3ccccc3Cl)oc2N(C)C)cc1 | > 35 µM (inactive) |
| Cc1ccccc1OCC(=O)Nc1ccc(N2CCN(C)CC2)c(Cl)c1 | > 35 µM (inactive) |
| CCN(CC)c1ccc(/C=N/NC(=O)c2cccc(S(=O)(=O)N3CCOCC3)c2)c(O)c1 | 1.13 µM |

| Compound | EC50 |
| --- | --- |
| Oc1c(CN2CCOCC2)cc(COCc2ccccc2)c2cccnc12 | 6.71 µM |
| COc1ccc(C(=O)NCCCOC(=O)c2ccc(OC)cc2)cc1 | > 35 µM (inactive) |
| COc1ccc(/C=N/NC(=O)c2ccoc2C)cc1O | > 35 µM (inactive) |
| CCOC(=O)C1CCCN(C(=O)c2ccc3oc(CCc4ccccc4)nc3c2)C1 (stereo not given) | > 35 µM (inactive) |
| CC(Sc1nnc(COc2ccc([N+](=O)[O-])cc2)n1C)C(=O)O (stereo not given) | > 35 µM (inactive) |
| Cc1cc(C)cc(N(CC(=O)Nc2ccccc2C(=O)N2CCOCC2)S(C)(=O)=O)c1 | > 35 µM (inactive) |
| Cc1cc(SCC(=O)N/N=C/c2ccccc2C(=O)O)c(C)cc1Br | > 35 µM (inactive) |
| CCC(=O)N1CCN(c2nc3ccc(Br)cc3s2)CC1 | > 35 µM (inactive) |
| CCn1ccnc1C(O)c1ccccc1OC (stereo not given) | > 35 µM (inactive) |
| CCC/C(=N/NC(=O)c1cccc(Cl)c1)c1ccccc1 | > 35 µM (inactive) |
| O=C(Nc1nc(-c2ccccn2)cs1)c1ccc(S(=O)(=O)N2CCCCC2)cc1 | 7.12 µM |
| CCCCOc1ccc(C(=O)NCC(=O)OC2CCOC2=O)cc1 (stereo not given) | 34.7 µM |
| Cc1cc(NC(c2cccnc2)c2ccc3cccnc3c2O)no1 (stereo not given) | 23.3 µM |
| O=C(c1cccc(C(F)(F)F)c1)C1CCCN(C(=O)Cn2cncn2)C1 (stereo not given) | > 35 µM (inactive) |
| COc1ccc(-n2c(C)cc(C(=O)CCl)c2C)cc1 | 12.4 µM |
| CCC1CCc2sc(C(=O)O)cc2C1 (stereo not given) | > 35 µM (inactive) |
| Cc1ccc(C(=O)CSc2ccc(-c3ccncc3)nn2)cc1 | > 35 µM (inactive) |
| COc1ccccc1C(c1nnnn1CC1CCCO1)N1CCC(C(N)=O)CC1 (stereo not given) | > 35 µM (inactive) |
| O=C(Nc1nc(NC(=O)c2ccco2)n(-c2ccccc2)n1)c1ccccc1 | 13.1 µM |
| CCCCn1c(=O)[nH]c(=O)c2c(C(=O)OCC)cc(-c3cccs3)nc21 | > 35 µM (inactive) |
| O=C(N/N=C/c1cc(Br)ccc1O)C(c1ccncc1)N1CCOCC1 (stereo not given) | > 35 µM (inactive) |
| COc1ccc(NC(=O)CNC(=O)Cc2cccc3ccccc23)c(OC)c1 | > 35 µM (inactive) |
| O=Cc1cc(N=Nc2ccccc2Cl)ccc1O | > 35 µM (inactive) |
| COc1ccc(CCNC(=O)c2nnn(CC(=O)Nc3c(C)cc(C)cc3C)c2N)cc1OC | > 35 µM (inactive) |
| O=C(N/N=C(\c1ccccc1)c1cccnc1)c1cccc(F)c1 | 2.62 µM |
| CC(NC(=O)C12CC3CC(CC(O)(C3)C1)C2)c1ccc(Cl)cc1Cl (stereo not given) | > 35 µM (inactive) |
| Fc1ccc(CSc2ccc(-c3ccco3)nn2)cc1 | > 35 µM (inactive) |

| Compound | EC50 |
| --- | --- |
| Cc1cc(Br)cc(/C=N/NC(=O)c2ccc3c(c2)OCO3)c1O | 6.26 µM |
| CCCCCC(=O)NNC(=S)NC(=O)c1cccc([N+](=O)[O-])c1 | > 35 µM (inactive) |
| COc1cc2ncnc(NCc3cccs3)c2cc1OC | > 35 µM (inactive) |
| CC(C)CC1NC(=O)N(Cc2cc(=O)n3ccsc3n2)C1=O (stereo not given) | > 35 µM (inactive) |
| O=[N+]([O-])c1ccc(N/N=C/c2ccccc2O)cc1 | > 35 µM (inactive) |
| Cc1ccc(S(=O)(=O)N2CCN(c3ccccn3)CC2)cc1 | > 35 µM (inactive) |
| CCN(CC)c1ccc(/C=N/NC(=O)c2c(Cl)cnn2C)c(O)c1 | 2.05 µM |
| NS(=O)(=O)c1ccc(NC(=O)c2ccc(CSc3ccccc3)o2)cc1 | > 35 µM (inactive) |
| CCOC(=O)CNC(=O)CSc1nnc(Cn2cnc3ccccc32)n1C | > 35 µM (inactive) |
| CCOc1ccc(C(=O)NC(=S)Nc2cccc(NC(=O)c3ccco3)c2)cc1[N+](=O)[O-] | > 35 µM (inactive) |
| CC(C)c1ccc(NC(=O)CCc2ccccc2)cc1 | > 35 µM (inactive) |
| Cc1ccnc(NS(=O)(=O)c2cc([N+](=O)[O-])ccc2C)c1 | > 35 µM (inactive) |
| O=[N+]([O-])c1ccc(N=Cc2ccc(Br)c([N+](=O)[O-])c2)cc1 | 15.4 µM |
| CCCCNc1nc(N)nc(-c2cc(Cl)ccc2O)n1 | > 35 µM (inactive) |
| O=C(CCSc1nc2ccccc2s1)N/N=C/c1c(O)ccc2ccccc12 | 11.5 µM |
| O=c1[nH]c(C2CCN(S(=O)(=O)c3ccc(C(F)(F)F)cc3)CC2)nc2c1nnn2Cc1ccc(F)cc1 | > 35 µM (inactive) |
| O=c1c2ccccc2nc(COc2ccccc2)n1/N=C/c1ccc(O)cc1O | 9.68 µM |
| C=CCN(c1ccccc1)S(=O)(=O)c1cccc(C(=O)Nc2ncccc2O)c1 | > 35 µM (inactive) |
| O=[N+]([O-])c1ccc(OCCCCN2CCCCC2)cc1 | > 35 µM (inactive) |
| Oc1ccc(CN2CCC(Cc3ccccc3)CC2)c2cccnc12 | 5.17 µM |
| CC(C)Cc1nnc(NC(=O)CCC(=O)N2CCC3(CC2)OCCO3)s1 | > 35 µM (inactive) |
| CCOC(=O)CN1C(=N)N(c2nc(NC(C)C)nc(NC(C)C)n2)CC1=O | > 35 µM (inactive) |
| CCOC(=O)C(=CNc1ccc(NC2=NCC(C)S2)cc1)C(=O)OCC (stereo not given) | 8.3 µM |
| CC(Oc1ccc2ccc(=O)oc2c1)C(=O)NCCN1CCOCC1 (stereo not given) | > 35 µM (inactive) |
